Results reported in patent publication US12241094B2, “Phenazine degrading agents and related compositions, methods and systems for interfering with viability of bacteria” (priority 2016, dated 2025).
Like-named read-outs stand apart in the source and are kept apart here.

How the values were obtained:
[1] = Redox potential E0' (vs. NHE) of redox-active compounds; type: physicochemical; settings: measured in aqueous solution at pH 7 in this study (footnote b)
[2] = tested on: PA14; experiment: Redox cycles over 7 days and support of survival (Table 1); type: cell-based, P. aeruginosa
[3] = tested on: PA14; experiment: Reduction of redox-active compounds by PA14 (Table 1); type: cell-based, P. aeruginosa
[4] = oxidized form, values from references a, c, d; cited from earlier work
[5] = tested on: Pa PA14 biofilms; experiment: Tobramycin tolerance of Pa PA14 biofilms; type: cell-based, P. aeruginosa
Description: In varying the amount of added 1-OH-PHZox, it was observed a dose-dependent response: the greater the [1-OHPHZox], the greater the biofilm inhibition, yet, under these conditions, saturating at 200 μM (FIG. 20B). To set the stage for flow-cell experiments to explore PodA and 1-OH-PHZ effects on biofilm inhibition and biofilm dissolution, the time course for biofilm development was mapped for Pa PA14 constitutively expressing YFP under constant flow in a minimal medium (FIG. 20C) as previously described (Wang et al. (2011) J Bacteriol. 193(14):3606-17). In addition, an appropriate initial tobramycin concentration to use in Pa PA14 biofilm experiments was also identified to test the hypothesis that PodA or 1-OH-PHZ can sensitize biofilms to antibiotics: Pa PA14 biofilms tolerate 20 μg/ml, 10× the MIC for tobramycin for planktonic cultures, similar to what has been reported for biofilms of Pa PAO1 (Bjarnsholt et al. (2005) Microbiol-Sgm. 2005; 151:373-83).

| Compound | E^0, (vs. NHE) [1] | # of Redox cycles over 7 days [2] | Support survival? [2] | Reduction by PA14? [3] | E^0, (vs. NHE) [4] | tobramycin concentration tolerated by biofilms [5] | tolerated concentration relative to MIC for planktonic cultures [5] |
| --- | --- | --- | --- | --- | --- | --- | --- |
| O=C(O)Cc1cc(O)ccc1O [Homogentisic acid (HMA), Homogentisic acid] | +306^b mV | No cycle | No |  |  |  |  |
| CN(C)c1ccc2nc3ccc(=[N+](C)C)cc-3sc2c1 [Methylene blue (MB), Methylene blue] | 0 mV | 3 | No | Yes | +11 mV |  |  |
| NC[C@H]1O[C@H](O[C@H]2[C@H](O)[C@@H](O[C@H]3O[C@H](CO)[C@@H](O)[C@H](N)[C@H]3O)[C@H](N)C[C@@H]2N)[C@H](N)C[C@@H]1O [tobramycin] |  |  |  |  |  | 20 µg/mL | 10 × the MIC |
